Two compounds from patent US6747024B1, “Heterocyclic compounds and their use as medicines” (Societe de Conseils de Recherches et d'Applications …, priority 1999, dated 2004) can be followed below.

For orientation: melting point means the temperature, or range, at which the solid turns liquid. As to `CC(=O)O[C@H]1OCC[C@@H]1NC(=O)[C@H](CC(C)C)NC(=O)c1ccc2c(c1)Nc1ccccc1S2` [Example 18.1, (2R,3S)-3-({(2S)-4-methyl-2-[(10H-phenothiazin-2-ylcarbonyl)amino]-pentanoyl}amino)tetrahydro-2-furanyl acetate], the melting point lay within 199 to 201 °C. The result for `CC(=O)O[C@@H]1OCC[C@@H]1NC(=O)[C@H](CC(C)C)NC(=O)c1ccc2c(c1)Nc1ccccc1S2` [Example 18.2, (2S,3S)-3-({(2S)-4-methyl-2-[(10H-phenothiazin-2-ylcarbonyl)amino]-pentanoyl}amino)tetrahydro-2-furanyl acetate] reads 205 to 208 °C.
